Experiments:
Assay type in all cases: in vivo, human
[1] = tested on: native kidney C3G patients; experiment: Phase 2 study CLNP023X2202, safety and tolerability
Description: (§1) The proposed iptacopan dose of 200 mg b.i.d. is considered appropriate based on data from the Phase 2 study, CLNP023X2202. […] Thus, the 200 mg b.i.d. dose of iptacopan appears to produce maximum changes in all of the complement biomarkers that have been evaluated to date in C3G patients.

native C3G patients = experiment: Phase 2 study CLNP023X2202, proteinuria and renal function; details: native C3G patients (N=16), final dose levels of 200 mg b.i.d.
Description: as §1

[2] = tested on: alternative complement pathway; experiment: Phase 2 study CLNP023X2202, complement biomarkers
Description: as §1

With CCO[C@H]1CCN(Cc2c(OC)cc(C)c3[nH]ccc23)[C@H](c2ccc(C(=O)O)cc2)C1 [iptacopan, 4-((2S,4S)-(4-ethoxy-1-((5-methoxy-7-methyl-1H-indol-4-yl)methyl)piperidin-2-yl))benzoic acid] as the compound, how does the “changes in hematology, biochemistry, urinalysis, vital signs or ECG parameters” value ([1]; in vivo) read?
Its value is “no notable changes”.

What about the “discontinuations due to adverse events” value ([1]; in vivo) of the same compound?
The value was “no definitive discontinuations due to adverse events”.

And the tolerability ([1]; in vivo)?
The tolerability was “well tolerated without unexpected or new safety findings”.

And the “deaths or serious adverse events during the treatment period” value ([1]; native kidney C3G patients)?
The value was “no deaths or serious adverse events were observed”.

And the “renal function (SCR, CrCl, eGFR)” value (native C3G patients)?
The value was “stabilization of renal function”.

And the “reduction in UPCR from baseline to Week 12” value (native C3G patients; two-sided p=0.0003)?
The value was 45%.

And the “C3 levels, dose dependence” value ([2]; 16 native C3G patients)?
The value was “increased dose-dependently”.

What about the “dose at which maximum decreases in plasma Bb, plasma sC5b-9 and urine sC5b-9 were obtained” value ([2]; 16 native C3G patients) of the same compound?
The value was 100 mg b.i.d.

What about the “dose at which maximum decreases in the Wieslab assay and increases in C3 were observed” value ([2]; 16 native C3G patients) of the same compound?
The value was 200 mg b.i.d.

What about the “sC5b-9, Bb, the Wieslab assay and urine sC5b-9, dose dependence” value ([2]; 16 native C3G patients) of the same compound?
The value was “decreased dose-dependently”.

What about the “plasma Bb, plasma and urine sC5b-9” value ([2]; Cohort A) of the same compound?
Its value is “reduction”.

What about the Wieslab activity ([2]; at 200 mg b.i.d) of the same compound?
Its Wieslab activity is “full inhibition”.

What about the “serum C3 levels” value ([2]; both cohorts) of the same compound?
The value was “overall normalization”.

What about the “inhibition of alternative complement pathway” value ([2]; both cohorts, upon iptacopan treatment) of the same compound?
The value was “Dose-dependent, profound and sustained inhibition”.

— patent publication US20260207577A1, “METHODS OF USING FACTOR B INHIBITORS” (priority 2023, published 2026)
